Measurements as given in patent publication US12172995B2, “Substituted indole and indazole compounds” (BRISTOL-MYERS SQUIBB COMPANY, priority 2018, dated 2024).

Key:
Format in all cases: cell-based
human TLR7 = target: T1, human TLR7 (Homo sapiens, UniProt Q9NYK1); assay: TLR7 inhibition reporter assay (HEK-Blue SEAP); details: HEK-Blue cells overexpressing human TLR7, stimulated with gardiquimod 7.5 μM, 22 hour incubation
T1 construct: host or cells: HEK-Blue cells
T1 sequence (Q9NYK1 27-1049): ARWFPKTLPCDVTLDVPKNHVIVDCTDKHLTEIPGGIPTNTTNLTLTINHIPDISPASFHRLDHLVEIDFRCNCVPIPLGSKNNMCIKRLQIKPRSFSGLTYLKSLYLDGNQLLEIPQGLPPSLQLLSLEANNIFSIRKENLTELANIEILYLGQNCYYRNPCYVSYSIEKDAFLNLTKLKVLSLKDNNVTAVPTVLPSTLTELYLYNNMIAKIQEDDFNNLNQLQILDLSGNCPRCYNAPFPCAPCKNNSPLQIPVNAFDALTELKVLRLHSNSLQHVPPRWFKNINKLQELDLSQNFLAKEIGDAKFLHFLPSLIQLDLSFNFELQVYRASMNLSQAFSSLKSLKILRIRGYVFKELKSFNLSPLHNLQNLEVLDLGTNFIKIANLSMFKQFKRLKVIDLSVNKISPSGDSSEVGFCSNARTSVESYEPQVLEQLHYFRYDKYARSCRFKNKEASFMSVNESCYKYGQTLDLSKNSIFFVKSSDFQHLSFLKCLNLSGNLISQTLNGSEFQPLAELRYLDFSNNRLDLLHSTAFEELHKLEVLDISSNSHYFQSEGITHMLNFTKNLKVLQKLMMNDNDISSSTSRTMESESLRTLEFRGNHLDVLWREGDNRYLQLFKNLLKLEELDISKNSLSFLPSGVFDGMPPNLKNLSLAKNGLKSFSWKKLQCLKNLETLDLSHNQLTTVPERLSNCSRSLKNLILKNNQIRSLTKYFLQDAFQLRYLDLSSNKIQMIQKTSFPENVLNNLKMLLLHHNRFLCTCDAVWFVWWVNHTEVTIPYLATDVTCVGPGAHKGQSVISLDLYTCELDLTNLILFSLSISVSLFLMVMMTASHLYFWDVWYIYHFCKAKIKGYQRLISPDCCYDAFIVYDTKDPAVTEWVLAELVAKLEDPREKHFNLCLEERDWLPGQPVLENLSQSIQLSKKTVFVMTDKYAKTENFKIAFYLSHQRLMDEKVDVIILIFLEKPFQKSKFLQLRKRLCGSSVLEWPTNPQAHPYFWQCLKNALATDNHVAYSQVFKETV
How it was run: (§1)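 Percent inhibition reflects SEAP reduction after 22 h at 37° C, relative to agonist-plus-DMSO and known-inhibitor controls. Compounds (0.05 nM to 50 μM) were added 30 min before agonist: TLR9 cells received ODN2006 5 nM, TLR8 cells R848 15.9 μM, TLR7 cells gardiquimod 7.5 μM; human receptor-expressing HEK-Blue reporter lines.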

human TLR8 = target: T2, human TLR8 (Homo sapiens, UniProt Q9NR97); assay: TLR8 inhibition reporter assay (HEK-Blue SEAP); details: HEK-Blue cells overexpressing human TLR8, stimulated with R848 15.9 μM, 22 hour incubation
T2 construct: host or cells: HEK-Blue cells
T2 sequence (Q9NR97 27-1041): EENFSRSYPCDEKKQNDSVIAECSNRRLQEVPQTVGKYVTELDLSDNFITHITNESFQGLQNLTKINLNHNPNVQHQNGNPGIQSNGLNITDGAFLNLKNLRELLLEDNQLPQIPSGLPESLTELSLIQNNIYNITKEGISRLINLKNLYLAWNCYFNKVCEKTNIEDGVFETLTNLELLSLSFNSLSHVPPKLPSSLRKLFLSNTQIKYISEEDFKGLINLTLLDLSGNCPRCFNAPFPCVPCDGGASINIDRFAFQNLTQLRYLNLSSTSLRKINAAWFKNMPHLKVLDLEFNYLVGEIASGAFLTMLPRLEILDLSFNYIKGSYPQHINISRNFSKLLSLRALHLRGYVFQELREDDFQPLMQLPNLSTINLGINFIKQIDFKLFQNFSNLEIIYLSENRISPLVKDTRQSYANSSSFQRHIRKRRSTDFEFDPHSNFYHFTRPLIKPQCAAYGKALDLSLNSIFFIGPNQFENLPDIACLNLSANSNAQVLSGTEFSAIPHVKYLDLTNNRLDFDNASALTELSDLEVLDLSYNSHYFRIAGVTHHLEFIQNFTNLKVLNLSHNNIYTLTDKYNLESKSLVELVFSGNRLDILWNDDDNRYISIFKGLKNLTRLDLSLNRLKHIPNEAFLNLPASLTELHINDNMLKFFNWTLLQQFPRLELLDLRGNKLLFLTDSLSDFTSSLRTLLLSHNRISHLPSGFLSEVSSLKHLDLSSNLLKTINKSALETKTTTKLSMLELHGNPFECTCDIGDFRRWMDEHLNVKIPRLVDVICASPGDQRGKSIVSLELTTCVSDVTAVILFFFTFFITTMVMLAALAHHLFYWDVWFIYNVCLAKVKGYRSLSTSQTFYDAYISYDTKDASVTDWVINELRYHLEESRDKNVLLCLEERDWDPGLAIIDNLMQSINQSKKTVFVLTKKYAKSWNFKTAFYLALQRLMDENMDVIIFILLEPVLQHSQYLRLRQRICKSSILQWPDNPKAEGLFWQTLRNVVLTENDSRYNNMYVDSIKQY
How it was run: as §1

human TLR9 = target: T3, human TLR9 (Homo sapiens, UniProt Q9NR96); assay: TLR9 inhibition reporter assay (HEK-Blue SEAP); details: HEK-Blue cells overexpressing human TLR9, stimulated with ODN2006 5 nM, 22 hour incubation
T3 construct: host or cells: HEK-Blue cells
T3 sequence (Q9NR96 26-1032): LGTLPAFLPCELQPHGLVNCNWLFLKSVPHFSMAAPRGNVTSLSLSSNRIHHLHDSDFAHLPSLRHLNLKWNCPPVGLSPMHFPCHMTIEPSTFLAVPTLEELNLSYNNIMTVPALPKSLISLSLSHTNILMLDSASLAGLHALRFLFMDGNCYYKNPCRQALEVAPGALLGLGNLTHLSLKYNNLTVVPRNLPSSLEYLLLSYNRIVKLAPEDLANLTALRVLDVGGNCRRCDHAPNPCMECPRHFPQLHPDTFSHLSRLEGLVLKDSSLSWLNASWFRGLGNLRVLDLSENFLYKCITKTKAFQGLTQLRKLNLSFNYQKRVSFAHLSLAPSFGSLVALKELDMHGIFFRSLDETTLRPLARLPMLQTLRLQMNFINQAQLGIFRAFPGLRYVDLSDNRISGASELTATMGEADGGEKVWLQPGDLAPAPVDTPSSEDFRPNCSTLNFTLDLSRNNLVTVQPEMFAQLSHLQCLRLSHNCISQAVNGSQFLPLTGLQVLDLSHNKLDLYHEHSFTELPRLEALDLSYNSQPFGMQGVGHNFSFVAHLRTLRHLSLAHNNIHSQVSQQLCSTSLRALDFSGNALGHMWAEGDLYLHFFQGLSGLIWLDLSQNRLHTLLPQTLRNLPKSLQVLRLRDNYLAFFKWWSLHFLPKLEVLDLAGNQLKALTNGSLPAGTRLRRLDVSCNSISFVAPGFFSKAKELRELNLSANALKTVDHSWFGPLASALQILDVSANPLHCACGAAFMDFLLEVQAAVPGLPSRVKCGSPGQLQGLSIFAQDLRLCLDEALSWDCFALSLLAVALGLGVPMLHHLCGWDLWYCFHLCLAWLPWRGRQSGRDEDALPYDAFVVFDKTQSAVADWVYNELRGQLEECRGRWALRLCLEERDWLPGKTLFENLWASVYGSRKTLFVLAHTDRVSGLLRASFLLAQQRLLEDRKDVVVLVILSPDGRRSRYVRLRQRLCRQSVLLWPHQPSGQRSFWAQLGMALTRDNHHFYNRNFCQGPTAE
How it was run: as §1

SMILES | IC50 (human TLR7) [nM] | IC50 (human TLR8) [nM] | IC50 (human TLR9) [nM]
CCc1cc2c(C3CCC(NCCS(C)(=O)=O)CC3)n[nH]c2cc1-c1cc(C)c2ncnn2c1 (single isomer, unassigned) [Example 100, 4-(5-ethyl-6-(8-methyl-[1,2,4]triazolo[1,5-a]pyridin-6-yl)-1H-indazol-3-yl)-N-(2-(methylsulfonyl)ethyl)cyclohexan-1-amine] | 7.5 | 0.2 | 17500
Cc1cc2c(C3CC(N(C)C)C3)n[nH]c2cc1-c1cc(C)c2ncnn2c1 (single isomer, unassigned) [Example 6, N,N-dimethyl-3-(5-methyl-6-(8-methyl-[1,2,4]triazolo[1,5-a]pyridin-6-yl)-1H-indazol-3-yl)cyclobutan-1-amine] | 9.3 | 0.3 | 3210
Cc1cc2c(C3CCC(N(C)C4COC4)CC3)n[nH]c2cc1-c1cc(C)c2ncnn2c1 (single isomer, unassigned) [Example 33, N-methyl-N-(4-(5-methyl-6-(8-methyl-[1,2,4]triazolo[1,5-a]pyridin-6-yl)-1H-indazol-3-yl)cyclohexyl)oxetan-3-amine] | 96.7 | 3 | 9010
Cc1cc(-c2ccc3c(CCNC4CCNCC4)c[nH]c3c2)cn2ncnc12 [Example 13, N-(2-(6-(8-methyl-[1,2,4]triazolo[1,5-a]pyridin-6-yl)-1H-indol-3-yl)ethyl)piperidin-4-amine] | 1690 | 269 | 605
Cc1cc(-c2cc(C)c3ncnn3c2)cc2[nH]nc(OC3CCC(NCCS(C)(=O)=O)CC3)c12 (stereo not drawn) [Example 187, 4-((4-methyl-6-(8-methyl-[1,2,4]triazolo[1,5-a]pyridin-6-yl)-1H-indazol-3-yl)oxy)-N-(2-(methylsulfonyl)ethyl)cyclohexan-1-amine] | 11.3 | 4.9 | 1820
Cc1cc2c(C3CCCNC3)n[nH]c2cc1-c1cc(C)c(=O)n(C)c1 (stereo not drawn) [Example 46, 1,3-dimethyl-5-(5-methyl-3-(piperidin-3-yl)-1H-indazol-6-yl)pyridin-2(1H)-one] | 124 | 2.1 | 1040
Cc1cc2c(C3CCN(C4COC4)CC3)n[nH]c2cc1-c1cc(C)c2ncnn2c1 [Example 73, 8-methyl-6-(5-methyl-3-(1-(oxetan-3-yl)piperidin-4-yl)-1H-indazol-6-yl)-[1,2,4] triazolo[1,5-a]pyridine] | 52.3 | 4.3 | 9070
Cc1cc2c(C3CCNCC3)n[nH]c2cc1-c1cc(C#N)c2ncnn2c1 [Example 84, 6-(5-methyl-3-(piperidin-4-yl)-1H-indazol-6-yl)-[1,2,4]triazolo[1,5-a]pyridine-8-carbonitrile] | 33.4 | 15.7 | 5610

These reach a lower IC50 (human TLR7). Values come first.

IC50 (human TLR7) [nM] | IC50 (human TLR8) [nM] | IC50 (human TLR9) [nM] | SMILES
2.1 | 0.37 | 5910 | Cc1cc(-c2cc3[nH]nc(C4CCC(N5CCC6(CCOC6)C5)CC4)c3cc2C(C)C)cn2ncnc12 (single isomer, unassigned) [Example 210, 7-(4-(5-isopropyl-6-(8-methyl-[1,2,4]triazolo[1,5-a]pyridin-6-yl)-1H-indazol-3-yl)cyclohexyl)-2-oxa-7-azaspiro[4.4]nonane]
0.6 | 0.1 | 5450 | CCc1cc2c(C3CCC(NC4CC4)CC3)n[nH]c2cc1-c1cc(C)c2ncnn2c1 (single isomer, unassigned) [Example 97, N-cyclopropyl-4-(5-ethyl-6-(8-methyl-[1,2,4]triazolo[1,5-a]pyridin-6-yl)-1H-indazol-3-yl)cyclohexan-1-amine]
0.8 | 0.5 | 13100 | COC1CN(C2CCC(c3n[nH]c4cc(-c5cc(C)c6ncnn6c5)c(C(C)C)cc34)CC2)C1 (stereo not drawn) [Example 144, 6-(5-isopropyl-3-(4-(3-methoxyazetidin-1-yl)cyclohexyl)-1H-indazol-6-yl)-8-methyl-[1,2,4]triazolo[1,5-a]pyridine]
2.6 | 2.3 | 3260 | Cc1cc(-c2cc(C)c3ncnn3c2)cc2[nH]nc(OC3CCC(N(C)C)CC3)c12 (single isomer, unassigned) [Example 180, N,N-dimethyl-4-((4-methyl-6-(8-methyl-[1,2,4]triazolo[1,5-a]pyridin-6-yl)-1H-indazol-3-yl)oxy)cyclohexan-1-amine]
1.2 | 0.1 | 6250 | Cc1cc(-c2cc3[nH]nc(C4CCC(N5CCC5)CC4)c3cc2C(C)C)cn2ncnc12 (single isomer, unassigned) [Example 139, 6-(3-(4-(azetidin-1-yl)cyclohexyl)-5-isopropyl-1H-indazol-6-yl)-8-methyl-[1,2,4]triazolo[1,5-a]pyridine]
2.7 | 0.2 | 17200 | CCc1cc2c(C3CCN(CC(N)=O)CC3)n[nH]c2cc1-c1cc(C)c2ncnn2c1 [Example 92, 2-(4-(5-ethyl-6-(8-methyl-[1,2,4]triazolo[1,5-a]pyridin-6-yl)-1H-indazol-3-yl)piperidin-1-yl)acetamide]
